Reference: patent publication US10117431B2, “Compounds and methods for improving plant performance” (Los Alamos National Security, LLC, priority 2013, dated 2018)

Columns and labels:
Type in all cases: in vivo
[1] = tested on: Soybeans (Variety Viking); experiment: Greenhouse seedling emergence, soybean; conditions: 1 mM seed treatment, 3 days after planting, controls 12 of 20
Description: The desired treatment concentration of ketosuccinamate was added to an aqueous solution of 0.01% Tween 80 and the pH was set to neutral with KOH. The seeds were dipped in the solution to wet them and allowed to air dry before planting, a process that required less than 15 min. Seeds were planted in vermiculite, sand, peat moss (1:1:1) in the greenhouse and the seedling emergence was tracked. The moisture in the germination/growth substrate as maintained between 15-20% of saturation. The temperature in the house ranged from 72-82° F. Bradyrhizobium japonicum (commercial innoculum) was mixed into the substrate before planting. 3 days after planting the following seedling emergence was observed. Controls 12 of 20 had emerged from the soil. Ketosuccinamate (1 mM) treated 16 of 20 had emerged.

Alfalfa (Variety Ladak) = experiment: Greenhouse seedling emergence, alfalfa; conditions: 1 mM seed treatment, 3 days after planting, control 58%
Description: The desired treatment concentration of ketosuccinamate was added to an aqueous solution of 0.01% Tween 80 and the pH was set to neutral with KOH. The seeds were dipped in the solution to wet them and allowed to air dry before planting, a process that required less than 15 min. Seeds were planted in vermiculite, sand, peat moss (1:1:2) in the greenhouse and the seedling emergence was tracked. The temperature in the house ranged from 72-82° F. Sinorhizobium meliloti inoculum (commercial innoculum) was mixed into the substrate before planting. 3 days after planting, the following seedling emergence was observed. Control 58%; Ketosuccinamate (1 mM) treated 79%.

[2] = tested on: Alfalfa (variety Ladak) seeds; experiment: Germination of treated alfalfa seeds on moist paper toweling; conditions: 3 days after initiation of germination, 65-75° F., control untreated 80%
Description: The desired treatment concentration of ketosuccinamate was added to an aqueous solution of 0.01% Tween 80 and the pH was set to neutral with KOH. The seeds were dipped in the solution to wet them and allowed to air dry before planting, a process that required less than 15 min. Alfalfa (variety Ladak) 3 days after initiation of germination on moist paper toweling at 65-75° F. the following percent germination was observed. Control untreated seeds: 80%, seeds treated with 0.1 mM ketosuccinamate: 88% and seeds treated with 1 mM ketosuccinamate: 93%. At least 30 seeds were used in each set.

[3] = tested on: Soybean (variety Viking) seeds; experiment: Germination of treated soybean seeds on moist paper toweling; conditions: 10 mM seed treatment, 75-85° F.
Description: The desired treatment concentration of ketosuccinamate was added to an aqueous solution of 0.01% Tween 80 and the pH was set to neutral with KOH. The seeds were dipped in the solution to wet them and allowed to air dry before planting, a process that required less than 15 min. Soybean (variety Viking) 22 hr after treatment and initiation of germination on moist paper toweling at 75-85° F. the following germination was observed. 2 of the 20 controls had broken through the pericarp whereas 9 of the 20 ketosuccinamate (10 mM) treated seeds had broken through the pericarp. 24 hours after treatment 6 of the 20 controls had broken the pericarp and 12 of the 20 ketosuccinamate-treated seeds had broken the pericarp.

**Q.** How did the “seedling emergence, number of 20 that had emerged from the soil” value [1] turn out when `NC(=O)CC(=O)C(=O)O` [ketosuccinamate, 4-amino-2,4-dioxobutanoic acid] was run?
**A.** The value was 16.

**Q.** What about the seedling emergence (Alfalfa (Variety Ladak)) of the same compound?
**A.** The seedling emergence was 79%.

**Q.** And the percent germination ([2]; seeds treated with 0.1 mM)?
**A.** The percent germination was 88%.

**Q.** And the percent germination ([2]; seeds treated with 1 mM)?
**A.** Its percent germination is 93%.

**Q.** And the “number of the 20 treated seeds that had broken through the pericarp” value ([3]; 22 hr after treatment, controls 2 of the 20)?
**A.** The value was 9.

**Q.** What about the “number of the 20 treated seeds that had broken the pericarp” value ([3]; 24 hours after treatment, controls 6 of the 20) of the same compound?
**A.** Its value is 12.
